# Data published in ChEMBL document CHEMBL1201862, “PubChem BioAssay data set” (2004).
# Active and inactive are the calls of the source.
# Experiments:
# [1] = target: Acyl-homoserine lactone acylase PvdQ (Pseudomonas aeruginosa (strain LESB58), UniProt Q9I194); assay: P. aeruginosa PvdQ acylase inhibitors, dose response, biochemical, fluorescence, plate reader and imaging, cherry-picks (AID 493231)
# [2] = target: Beta-galactosidase (Escherichia coli, UniProt Q8VNN2); assay: beta-galactosidase enzyme inhibitors and activators, dose response, artefact control for CCR6 antagonist project, biochemical, E. coli enzyme, set 3 (AID 504712); type: functional
# [3] = target: T1, C-C chemokine receptor type 6 (Homo sapiens, UniProt P51684); assay: CCR6 receptor antagonists, dose response, cell-based, luminescent beta-arrestin readout (AID 504728); type: functional
# T1 sequence (P51684 whole entry): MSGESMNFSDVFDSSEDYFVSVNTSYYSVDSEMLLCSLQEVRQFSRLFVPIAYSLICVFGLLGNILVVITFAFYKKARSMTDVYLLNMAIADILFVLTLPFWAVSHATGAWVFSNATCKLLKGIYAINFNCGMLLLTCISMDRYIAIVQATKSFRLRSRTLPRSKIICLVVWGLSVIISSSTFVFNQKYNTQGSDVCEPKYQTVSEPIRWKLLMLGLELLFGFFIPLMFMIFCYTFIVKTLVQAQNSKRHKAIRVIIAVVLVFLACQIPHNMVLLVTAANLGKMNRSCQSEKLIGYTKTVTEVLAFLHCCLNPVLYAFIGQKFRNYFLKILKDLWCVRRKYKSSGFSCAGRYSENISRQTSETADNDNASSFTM
# [4] = target: T2, Insulin-degrading enzyme (Homo sapiens, UniProt P14735); assay: Dose Response: Fluorescence polarization-based cell-based high throughput dose response assay for inhibitors of insulin-degrading enzyme (IDE). [Related pubchem assays: 434962 (Primary screen (IDE inhibitors in singlicate)), 449730 (Counterscreen (Cytotoxicity in triplicate)), 435028 (Confirmation (IDE inhibitors in triplicate)), 434984 (Summary …; type: functional
# T2 sequence (P14735 whole entry): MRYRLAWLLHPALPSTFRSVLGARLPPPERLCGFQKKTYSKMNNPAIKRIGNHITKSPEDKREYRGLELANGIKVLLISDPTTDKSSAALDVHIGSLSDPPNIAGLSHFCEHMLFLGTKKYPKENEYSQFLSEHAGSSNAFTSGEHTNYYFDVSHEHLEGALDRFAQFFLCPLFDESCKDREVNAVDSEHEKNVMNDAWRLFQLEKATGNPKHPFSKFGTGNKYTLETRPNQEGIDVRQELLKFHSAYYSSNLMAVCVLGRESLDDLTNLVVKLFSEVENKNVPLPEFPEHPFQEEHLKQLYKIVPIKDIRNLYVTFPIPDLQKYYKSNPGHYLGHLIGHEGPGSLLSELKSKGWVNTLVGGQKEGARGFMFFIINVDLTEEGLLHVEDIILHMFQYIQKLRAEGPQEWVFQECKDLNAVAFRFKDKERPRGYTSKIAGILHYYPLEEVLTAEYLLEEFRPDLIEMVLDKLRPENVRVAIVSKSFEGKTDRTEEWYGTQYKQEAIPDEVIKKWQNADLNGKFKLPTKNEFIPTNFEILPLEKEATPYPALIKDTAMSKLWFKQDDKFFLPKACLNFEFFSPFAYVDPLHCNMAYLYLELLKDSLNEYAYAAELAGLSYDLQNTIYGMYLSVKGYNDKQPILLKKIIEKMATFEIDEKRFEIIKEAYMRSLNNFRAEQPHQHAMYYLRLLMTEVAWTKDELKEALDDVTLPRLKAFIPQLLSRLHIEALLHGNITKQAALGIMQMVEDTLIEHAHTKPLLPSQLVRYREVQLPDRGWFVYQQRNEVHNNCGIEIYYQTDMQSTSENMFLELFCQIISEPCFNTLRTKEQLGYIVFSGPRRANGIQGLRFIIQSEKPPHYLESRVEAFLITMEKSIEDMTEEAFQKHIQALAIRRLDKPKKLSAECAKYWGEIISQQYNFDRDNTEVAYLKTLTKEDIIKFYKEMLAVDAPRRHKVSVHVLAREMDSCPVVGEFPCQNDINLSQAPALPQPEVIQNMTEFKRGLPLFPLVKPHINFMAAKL
# [5] = Counterscreen for IDE inhibitors: Luminescence-based cell-based high throughput dose response assay to identify compounds that are cytotoxic to HEK cells. [Related pubchem assays: 434962 (Primary screen (IDE inhibitors in singlicate)), 449730 (Counterscreen (Cytotoxicity in triplicate)), 435028 (Confirmation (IDE inhibitors in triplicate)) …; type: functional; settings: HEK293
# [6] = inhibitors of SNCA 5'UTR-driven reporter translation, confirmation, H4 neuroglioma cells, luminescence (AID 1988); type: functional, cell-based
# [7] = luciferase reporter signal reduction – luminescence, H4-C neuroglioblastoma cells, dose response (AID 2458); type: functional, cell-based;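 note: H4 neuroglioblastoma cells stably carrying a luciferase reporter gene fusion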
# [8] = Luminescence-based counterscreen assay for KLF5 inhibitors: dose response cell-based high throughput screening assay to identify cytotoxic compounds using the IEC-6 intestinal epithelial cell line. [Related pubchem assays: 1700 (Primary screen.), 1834 (Confirmation screen.), 1858 (Summary AID.), 1905 (Counterscreen.)]; type: functional
# [9] = Shn3 3'UTR reporter inhibitors, dose response, cell-based, Clone20 osteoblasts, firefly luciferase, cherry-picked (AID 624132); type: functional;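 note: firefly luciferase luminescence from reporter carrying the Shn3 3'UTR in osteoblasts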
# [10] = inhibitors of firefly luciferase expression or activity, dose response, H4 neuroglioma cells, luminescence (AID 1990); type: functional, cell-based
# [11] = Luminescence Cell-Based Dose Confirmation HTS to Identify Inhibitors of Platelet Dense Granule Release. [Related pubchem assays: 1663 (Primary HTS), 1678 (Summary of Project)]; type: functional
# [12] = target: Luciferin 4-monooxygenase (Photinus pyralis, UniProt P08659); assay: firefly luciferase enzyme inhibitors, dose response, biochemical, luminescence (AID 1891)
# [13] = target: T3, Heat shock factor protein 1 (Mus musculus, UniProt P38532); assay: inhibition of MG132-induced HSE-luciferase signal, confirmation, cell-based, NIH3T3, luminescence, dose retest (AID 2382); type: functional;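 note: NIH3T3 fibroblasts with HSF1-driven luciferase reporter stressed by proteasome inhibitor MG132; luminescence from HSF1-driven luciferase expression after 8 hours of MG132 stress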
# T3 sequence (P38532 whole entry): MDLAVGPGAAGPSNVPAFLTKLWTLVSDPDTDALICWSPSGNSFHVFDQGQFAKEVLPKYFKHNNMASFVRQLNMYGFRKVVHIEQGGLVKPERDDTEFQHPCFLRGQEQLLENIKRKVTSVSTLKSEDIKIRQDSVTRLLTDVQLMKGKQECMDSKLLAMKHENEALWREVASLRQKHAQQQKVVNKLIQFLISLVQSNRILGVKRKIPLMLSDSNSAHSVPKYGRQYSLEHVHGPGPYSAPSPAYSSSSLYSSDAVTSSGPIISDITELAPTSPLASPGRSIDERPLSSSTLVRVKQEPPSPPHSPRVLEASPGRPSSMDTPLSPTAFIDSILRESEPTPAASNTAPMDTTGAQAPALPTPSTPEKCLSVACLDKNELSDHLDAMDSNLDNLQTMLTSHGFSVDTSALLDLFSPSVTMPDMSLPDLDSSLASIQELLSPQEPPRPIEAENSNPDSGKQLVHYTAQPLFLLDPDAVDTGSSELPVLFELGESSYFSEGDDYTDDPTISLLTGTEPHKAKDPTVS
# [14] = Luminescence Cell-Based Dose Response HTS to Identify Inhibitors of 5'UTR Stem-Loop Driven Prion Protein mRNA Translation in H4 Neuroglioblastoma Cells. [Related pubchem assays: 1827 (Project Summary), 1813 (Primary HTS)]; type: functional
# [15] = cells; type: functional, cell-based
# [16] = system: Vero; assay: cells; type: functional, cell-based; settings: Chlorocebus sabaeus
# [17] = system: Vero; assay: cells; type: functional; settings: Chlorocebus sabaeus
# [18] = HepG2 cell cytotoxicity, dose response, cytotoxicity control for Shn3 inhibitor project, CellTiter-Glo, cherry-picked (AID 624134); type: functional, cell-based
# [19] = inhibitors of SNCA 5'UTR-driven translation, confirmation, luminescence, H4 neuroglioblastoma cells, dose confirmation (AID 2454); type: functional, cell-based;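 note: H4 neuroglioblastoma cells carrying an alpha-synuclein 5'UTR luciferase reporter; potency for inhibition of the luciferase signal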
# [20] = target: Lysosomal acid glucosylceramidase (Homo sapiens, UniProt P04062); assay: Dose response cell-based high throughput screening assay to identify enhancers of beta-glucosidase activity. [Related pubchem assays: 784 ]; type: functional
smiles,measurement,setting,value
Cc1cc(NC(=O)c2cc(Cl)ccc2Cl)no1,AC50,[1],> 100 µM (inactive)
CN1CCN(c2ccccc2NC(=O)c2ccc(-c3cccc(Cl)c3)o2)CC1,IC50,[2],> 66.6 µM (inactive)
same,IC50,[3],> 66.6 µM (inactive)
Cc1cccc(N2CCN(C(=O)c3cccc(N4C(=O)C5CC=CC(C)C5C4=O)c3)CC2)c1C (stereo not given),IC50,[4],4 µM (active)
same,IC50,[5],23.8 µM (not active)
CN1CCN(c2ccc(-c3ccc4ccccc4n3)cc2)CC1,EC50,[6],< 0.1 µM (active)
same,EC50,[7],0.134 µM (active)
same,IC50,[8],26.6 µM (not active)
same,AC50,[9],2.73 µM (active)
same,EC50,[10],< 0.195 µM (active)
same,EC50,[11],1.66 µM (active)
same,EC50,[12],0.953 µM (active)
same,EC50,[13],< 0.16 µM (active)
same,EC50,[14],< 0.1 µM (active)
same,EC50,[15],0.123 µM (active)
same,IC50,[16],> 25 µM (active)
same,CC50,[17],> 25 µM (active)
same,AC50,[18],22.6 µM (active)
same,EC50,[19],0.039 µM (active)
COc1ccc(N2C(=O)/C(=C\NNc3nc(C)cc(C)n3)c3ccccc3C2=O)cc1OC,EC50,[6],9.51 µM (active)
same,IC50,[2],> 66.6 µM (inactive)
same,EC50,[10],11.8 µM (active)
same,EC50,[14],11.8 µM (active)
same,IC50,[3],0.594 µM (active)
O=C1Nc2ccccc2C(O)(C(=O)NC2CC2)N1c1ccc(Cl)c(Cl)c1 (stereo not given),EC50,[20],> 50 µM (not active)
